Where two headings read alike, the source gives them in different places.

The values that follow come from patent publication US20070166367A1, “Adept or gdept producing acetaldehyde” (priority 2004, published 2007).

The subject of data set [1] is Ad-ADH CMT-64 cells. As to the kind of experiment: Ad-ADH ethanol cytotoxicity assay. To be noted: for numbers of cells: seeded at 5×10^5 on Day 0, day 2, FIG. 4; for total cell number as % of the starting number: ethanol. The format is cell-based. The method, then:
(§1) Cells were placed into 6 well plates at 5×10^6 per well. After overnight incubation, the cells were washed twice in PBS then incubated with virus (Hela MOI 100, CMT-64 MOI 1000) at 37° C. for 1 hr in 1 ml of serum free media. Following addition of 3 mls more of tissue culture medium the cells were incubated overnight, assayed for ADH activity and used for experiments as below.

The next data set has as its system Daudi lymphoma cells. Description: acetaldehyde combined with Cisplatin in vitro. In kind it is cell-based. The text has this:
The results shown are the number of live cells at each time point shown as a % of the number of cells at the start of the expt (ie 100% at time 0 hrs).

The subject of the next data set is Ad-ADH Hela cells. As to the kind of experiment: Ad-ADH ethanol cytotoxicity assay. In kind it is cell-based. To be noted: seeded at 5×10^5 on Day 0, day 2, FIG. 4. As for the experimental part: as §1
Another data set concerns CMT-64. Description: in vitro acetaldehyde and cisplatin toxicity assay. In kind it is cell-based. To be noted: FIG. 2. As for the experimental part:
(§2) Standard tissue culture techniques were used to maintain Hela, Daudi, Jurkat, CMT-64 cells in flasks in DMEM+10% FCS in a 37° C. incubator.
(§3) Cell lines subcloned into 25-cm^2 flasks and incubated in media containing dilutions of acetaldehyde, cisplatin or both. Flasks remained sealed during incubation and the media and acetaldehyde/cisplatin were replaced daily. Viable cell counts were made using Trypan blue exclusion and a standard haemocytometer.

The test system of the next data set is Daudi. As to the kind of experiment: in vitro acetaldehyde and cisplatin toxicity assay. The conditions noted are these: higher cell density, 3 days exposure, FIG. 2. In kind it is cell-based. As for the experimental part: as §2, §3
The next data set relates to CMT-64 cells. The conditions noted are these: ethanol IP for several days, particularly on Day 6, FIG. 5. As for the experimental part: CMT-64 cells are injected s-c into mice and tumour growth allowed to proceed.
Virus described above is introduced into the CMT-64 cells.
Alcohol (ethanol) is injected IP for several days.
Tumour dimensions are monitored thereafter.

For data set [2] the following is noted: in vivo; cited from earlier work.
Data set [3] concerns Ad-ADH CMT-64 cells. As for the experimental part: (§4) The animal experiment was approved by the Cancer Research UK animal use and safety committee and the Home Office before initiation. On the day prior to injection, 6×10^6 CMT-64 cells were transduced with the Ad-ADH virus in vitro, then on Day 0 adult C57B/6 mice received s-c injections in the flank of 5×10^5 Ad-ADH CMT-64 cells (groups 1 and 2) or mock infected CMT-64 cells (groups 3 and 4) suspended in 100 uL of PBS. On days 0-4 groups 1 and 3 were injected with 500 ul of 12% ethanol (2 g/kg) solution IP and groups 2 and 4 received 500 uL of water IP, there were 6 mice in each group. Tumour volume was estimated twice weekly using the formula: volume=(length×width×width)×(3.142/6).
(§5) Tumour size was measure on Days 6, 10 and 13; the results are shown as the mean and SD from 6 mice per group.

The subject of a further data set is wild type CMT-64 cells. To be noted: ethanol 2 g/kg IP days 0-4 (group 3). The method, then:
as §4, §5

For data set [4] the following is noted: cited from earlier work.
The conditions of data set [5]: chronic exposure to ethanol (4%), +12 weeks; cited from earlier work.

Turning to `Cc1cn[nH]c1` [4-MP, 4-methylpyrazole], in the data set with Ad-ADH CMT-64 cells [1] (4-MP 10 uMol), the “effect on ethanol mediated growth reduction” value is listed as “blocking of this effect”.
Regarding `N.N.[Cl][Pt][Cl]` [cisplatin, Cisplatin], the “number of live cells as a % of the number of cells at the start” value was found to be 147% in the data set on Daudi lymphoma cells (Cisplatin at 30 μM, 6 hr); 122% in the data set with Daudi lymphoma cells (Cisplatin at 30 μM, 18 hr); 76% in the data set on Daudi lymphoma cells (Cisplatin at 30 μM, 21 hr); 82% in the data set with Daudi lymphoma cells (Cisplatin at 30 μM, 25 hr); 36% in the data set on Daudi lymphoma cells (Cisplatin at 30 μM, 42 hr); 63% in the data set with Daudi lymphoma cells (repeated experiment, +25 hours). For the same compound, the results for the numbers of cells in the data set on Ad-ADH CMT-64 cells [1] and in the data set on Ad-ADH Hela cells were 3.75×10^5 and 3.2×10^5, respectively. For the same compound, the “cell number as % of starting number” value in the data set with CMT-64 was 80%; in the data set on Daudi, 21%.
Turning to `CCO` [ethanol], in the data set on CMT-64 cells, the tumour growth result is reported as “significant inhibition of growth”. The well tolerated levels in data set [2] is 500 to 2500 mg/L. In addition, the “tumour size of one mouse” value with Ad-ADH CMT-64 cells [3] (Day 10 and Day 23, no further increase) was found to be 0.058 cm3. Besides, the entries for the “median size as % of the water treated controls” value in the data set with Ad-ADH CMT-64 cells [3] (day 6) and with Ad-ADH CMT-64 cells [3] (day 13) were 30% and 42%, respectively. Moreover, the “mean size of the tumours” value came to 0.036 cm^3 in the data set with Ad-ADH CMT-64 cells [3] (ethanol 2 g/kg IP days 0-4, day 6) and 0.18 cm3 in the data set with Ad-ADH CMT-64 cells [3] (ethanol 2 g/kg IP days 0-4, day 13). For the same compound, the mean tumour volumes in the data set on wild type CMT-64 cells (day 6) is recorded as 0.1645 cm^3; with wild type CMT-64 cells (day 13), 0.514 cm^3. Moreover, in the data set on Ad-ADH CMT-64 cells [1] (2 days ethanol exposure), the “cell number as % of non-ethanol exposed controls” value amounted to 30%. In addition, the number of cells is reported as 3.7×10^5 with Ad-ADH CMT-64 cells [1] (ethanol 20 mM, day 2, FIG. 3) and 1.8×10^5 with Ad-ADH CMT-64 cells [1] (extended ethanol exposure, day 4). For the same compound, the results for the “total cell number as % of the starting number” value with Ad-ADH CMT-64 cells [1] (day 2) and in the data set with Ad-ADH CMT-64 cells [1] (day 4) were 74% and 36%, respectively. Also, the figures for the numbers of cells in the data set with Ad-ADH CMT-64 cells [1] and with Ad-ADH Hela cells were 3.5×10^5 and 6.2×10^5, respectively. Moreover, in [4] (IP ethanol injections of 3.7-3.8 g/kg), the “time until blood ethanol levels fell below the limit of detection” value was 6 to 7 h. The “rate of ethanol metabolism in mice relative to humans” value in [4] (mouse, in vivo) was 5 times. For the same compound, the cardiac toxicity result in [5] is on record as “severe myocardial damage”.
